For 18 compounds, IC50 and GI50 results are on record in patent US8436012B2, “Imidazopyridin-2-one derivatives” (Daiichi Sankyo Company, Limited, priority 2008, dated 2013).

For one test, the target named is T1, human mTOR (Homo sapiens, UniProt P42345).
T1 construct: the portion corresponding to 1362-2549aa at the C terminus of human mTOR; made in house
The test is described as follows: mTOR Kinase Activity Inhibition Test. It is filed as biochemical. Particulars: His-tagged mTOR (1362C), biotinylated peptide substrate, ATP, 3 hours at room temperature, fluorescence resonance energy transfer 665 nm/620 nm; read-out: IC50 value of mTOR enzyme inhibitory activity. As to the method:
The kinase activity of mTOR was measured in the presence or absence of a test compound. A substrate peptide is phosphorylated by mTOR kinase activity. A complex of streptavidin-XL665 and anti-phosphorylated S6K (Thr389) antibody/anti-mouse IgG-cryptate binds to this phosphorylated peptide. At this moment, fluorescence resonance energy transfer takes place from antibody/anti-mouse IgG-cryptate exposed to light excitation to XL665, which results in emission of fluorescence at 665 nm. The mTOR kinase activity is detected using this principle.
(1) Sample Preparation and Enzymatic Reaction
An HEK293 cell line that constitutively expresses a His tag fused human mTOR has been established. His tag was introduced into the N terminus of the portion corresponding to 1362-2549aa at the C terminus of human mTOR. Cell lysate was prepared from this HEK293 cell line constitutively expressing His-tagged mTOR (1362C), and His-tagged mTOR (1362C) was purified using the His tag affinity according to a conventional method.
Next, an mTOR enzyme solution was prepared, which contains the aforementioned His-tagged mTOR (1362C) enzyme, 8 μg/mL of biotinylated peptide (Biotin-Ahx-[…]-amide (Sigma)), as well as 50 mM HEPES (pH 7.5), 20 mM MnCl2, 1 mg/ml BSA, an appropriate amount of protease inhibitor cocktail (Complete EDTA free, Roche), 100 ng/ml Calyculin A, 4 μg/ml Cantharidin and 10 mM DTT as other components.
The test compound was dissolved in DMSO, and serial dilutions were prepared with 20 μM ATP solution (50 mM HEPES (pH 7.5), 20 μM ATP) to achieve concentrations necessary for the assay. 5 μL of this compound solution was applied to each well of a 384 well small volume white Greiner plate.
5 μL of mTOR enzyme solution was added to the aforementioned well containing the test compound. After mixing, the mixture was incubated at room temperature for 3 hours to carry out the enzymatic reaction.
The same operation was performed with a solution of DMSO in 20 μM ATP solution as a positive control and with a solution of DMSO in 50 mM HEPES (pH 7.5) as a negative control.
(2) Detection of Enzymatic Reaction
After the enzymatic reaction, 5 μl each of an europium solution (a solution of anti-mouse IgG-cryptate (SCETI Medical Labo K.K.) and anti-phosphorylated S6K (Thr389) antibody (Cell Signaling Technology Inc.) in 50 mM HEPES (pH 7.5), 100 mM EDTA and 1.5 mg/ml BSA) and an XL665 solution (a solution of streptavidin-XL665 (SCETI Medical Labo K.K.) in 50 mM HEPES (pH 7.5), 100 mM EDTA, 0.8 M KF and 1.5 mg/ml BSA) were added in this order and then mixed. The mixture was incubated at 4° C. overnight. On the following day, the mixture was returned to room temperature and irradiated with excitation light at 337 nm. Fluorescence at 620 nm and fluorescence at 665 nm were measured with RUBYstar (BMG).
The mTOR inhibitory activity (%) was calculated using the ratio calculated from the measured values as an index of enzyme activity. Here, the ratio was calculated from the following formula (I). Ratio=10000×665 nm fluorescence value/620 nm fluorescence value (1)
The mTOR enzyme inhibitory activity (%) was calculated from the following formula (2). mTOR enzyme inhibitory activity (%)=100×[(P−S)/(P−N)] (2)
P: Ratio in well of positive control
N: Ratio in well of negative control
S: Ratio in well containing test compound
Further, an optimal curve was calculated based upon each concentration of the test compound prepared in serial dilutions and the mTOR enzyme inhibitory activity (%) at that concentration. The concentration at which 50% inhibition occurred was calculated as the IC50 value of mTOR enzyme inhibitory activity.

The test system of another test is WM-266-4 cells. Kind of test: Cell Proliferation Inhibitory Test. It counts as cell-based. Particulars: Homo sapiens, 72 h, cultured three days with test compound, MTT, read-out: 50% cell proliferation inhibitory activity (GI50 value). As to the method: WM-266-4 cells (ATCC, USA) were seeded in a 96-well plate and cultured overnight. Then, serial dilutions of the sample containing the test compound were prepared, added to each well and cultured another three days. Thereafter, the cell amount in each well was measured by MTT (MOSMANN, T., Rapid colorimetric assay for cellular growth and survival: application to proliferation and cytotoxicity assays. J. Immunol. Methods, 65, 55-63 (1983)). The 50% cell proliferation inhibitory activity (GI50 value) was calculated from the following formula (3). 100×[(T−T0)/(C−T0)]=50 (3)
Here, T represents values from the test compound added wells, C represents the value from the well to which the test compound was not added for three days, and To represents an initial measured value at the time of addition of the test compound.

Bounds are passed on as bounds.

T1 sequence (P42345 1362-2549): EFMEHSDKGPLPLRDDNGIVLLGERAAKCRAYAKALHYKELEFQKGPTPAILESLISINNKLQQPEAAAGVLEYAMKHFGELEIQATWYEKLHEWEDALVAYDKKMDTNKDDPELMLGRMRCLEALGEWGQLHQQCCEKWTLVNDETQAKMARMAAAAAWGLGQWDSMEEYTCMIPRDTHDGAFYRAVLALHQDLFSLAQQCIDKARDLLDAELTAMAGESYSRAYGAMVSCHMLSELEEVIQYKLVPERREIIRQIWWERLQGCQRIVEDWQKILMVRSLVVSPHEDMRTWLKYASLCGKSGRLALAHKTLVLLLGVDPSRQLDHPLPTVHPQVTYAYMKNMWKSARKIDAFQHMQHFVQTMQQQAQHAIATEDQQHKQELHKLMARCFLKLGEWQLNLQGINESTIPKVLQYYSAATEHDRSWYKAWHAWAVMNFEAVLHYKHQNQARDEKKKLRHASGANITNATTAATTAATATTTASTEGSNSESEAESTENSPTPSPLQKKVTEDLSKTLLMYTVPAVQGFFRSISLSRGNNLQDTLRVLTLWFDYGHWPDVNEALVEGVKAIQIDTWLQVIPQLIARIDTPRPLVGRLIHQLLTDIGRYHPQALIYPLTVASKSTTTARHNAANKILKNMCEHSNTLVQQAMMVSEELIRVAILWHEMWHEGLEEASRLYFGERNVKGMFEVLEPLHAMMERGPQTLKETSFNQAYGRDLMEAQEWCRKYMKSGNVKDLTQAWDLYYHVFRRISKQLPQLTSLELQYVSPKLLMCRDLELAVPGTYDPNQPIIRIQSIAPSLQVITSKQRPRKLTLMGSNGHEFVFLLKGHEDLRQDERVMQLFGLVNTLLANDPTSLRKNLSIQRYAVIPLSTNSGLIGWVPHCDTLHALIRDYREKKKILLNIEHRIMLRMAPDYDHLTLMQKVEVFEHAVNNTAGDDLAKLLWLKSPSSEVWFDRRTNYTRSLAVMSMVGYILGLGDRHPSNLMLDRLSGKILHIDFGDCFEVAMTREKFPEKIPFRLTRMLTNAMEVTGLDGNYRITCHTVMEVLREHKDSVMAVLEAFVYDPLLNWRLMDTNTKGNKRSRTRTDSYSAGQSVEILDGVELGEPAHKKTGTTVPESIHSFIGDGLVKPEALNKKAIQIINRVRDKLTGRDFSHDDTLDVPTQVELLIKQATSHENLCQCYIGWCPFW

What is called IC50 is the concentration needed to halve the response being measured. As to `CC(Cn1c(=O)[nH]c2ncc(-c3cnc4[nH]ccc4c3)cc21)C1CCOCC1` (stereo not drawn) [Example 50, 6-(1H-Pyrrolo[2,3-b]pyridin-5-yl)-1-[2-(tetrahydro-2H-pyran-4-yl)propyl]-1,3-dihydro-2H-imidazo[4,5-b]pyridin-2-one], at human mTOR, the IC50 is less than 0.05 µM. The GI50 with WM-266-4 cells was less than 3 µM.

As for `O=c1[nH]c2ncc(-c3cnc4[nH]ccc4c3)cc2n1CC1CCC(F)(F)CC1` [Example 103, 1-[(4,4-Difluorocyclohexyl)methyl]-6-(1H-pyrrolo[2,3-b]pyridin-5-yl)-1,3-dihydro-2H-imidazo[4,5-b]pyridin-2-one], the IC50 at human mTOR is less than 0.05 µM. Moreover, in the test with WM-266-4 cells, the GI50 was less than 3 µM.

`O=C(O)c1c[nH]c2ncc(-c3cnc4[nH]c(=O)n(CC5CCOCC5)c4c3)cc12` [Example 93, 5-[2-oxo-1-(tetrahydro-2H-pyran-4-ylmethyl)-2,3-dihydro-1H-imidazo[4,5-b]pyridin-6-yl]-1H-pyrrolo[2,3-b]pyridine-3-carboxylic acid]: the IC50 at human mTOR is less than 0.05 µM. In addition, in the test on WM-266-4 cells, the GI50 was in the range of 3 to 25 µM.

For the compound `O=c1[nH]c2nc(Cl)c(-c3cnc4[nH]ccc4c3)cc2n1C[C@H]1COCCO1` [Example 155, 5-Chloro-1-[(2S)-1,4-dioxan-2-ylmethyl]-6-(1H-pyrrolo[2,3-b]pyridin-5-yl)-1,3-dihydro-2H-imidazo[4,5-b]pyridin-2-one], on human mTOR, the IC50 was less than 0.05 µM. For the same compound, in the test on WM-266-4 cells, the GI50 is less than 3 µM.

Regarding `CCc1c(-c2cnc3[nH]c(=O)n(C[C@H]4COCCO4)c3c2)cnc2[nH]ccc12` [Example 123, 1-[(2S)-1,4-Dioxan-2-ylmethyl]-6-(4-ethyl-1H-pyrrolo[2,3-b]pyridin-5-yl)-1,3-dihydro-2H-imidazo[4,5-b]pyridin-2-one], the half-maximal inhibitory concentration (IC50) at human mTOR was less than 0.05 µM. Further, in the test with WM-266-4 cells, the GI50 was less than 3 µM.

Take `O=c1[nH]c2ncc(-c3cc4ccccc4[nH]3)cc2n1CC1CCOCC1` [Example 23, 6-(1H-Indol-2-yl)-1-(tetrahydro-2H-pyran-4-ylmethyl)-1,3-dihydro-2H-imidazo[4,5-b]pyridin-2-one]: the IC50 at human mTOR is less than 0.05 µM. In addition, the GI50 in the test with WM-266-4 cells was less than 3 µM.

As for `O=c1[nH]c2ncc(-c3cc4cc[nH]c4nc3Cl)cc2n1C[C@H]1COCCO1` [Example 127, 6-(6-Chloro-1H-pyrrolo[2,3-b]pyridin-5-yl)-1-[(2S)-1,4-dioxan-2-ylmethyl]-1,3-dihydro-2H-imidazo[4,5-b]pyridin-2-one], the 50% inhibitory concentration (IC50) on human mTOR is less than 0.05 µM. In the test with WM-266-4 cells, the GI50 is less than 3 µM.

Take `CO[C@H]1CCO[C@@H](Cn2c(=O)[nH]c3ncc(-c4cnc5[nH]ccc5c4)cc32)C1` [Example 137, 2,6-Anhydro-1,3,5-trideoxy-4-O-methyl-1-[2-oxo-6-(1H-pyrrolo[2,3-b]pyridin-5-yl)-2,3-dihydro-1H-imidazo[4,5-b]pyridin-1-yl]-L-threo-hexitol]: at human mTOR, the IC50 was less than 0.05 µM. For the same compound, in the test with WM-266-4 cells, the GI50 was less than 3 µM.

Turning to `O=c1[nH]c2ncc(-c3ccc4[nH]ccc4c3)cc2n1CCC1=CCOCC1` [Example 49, 1-[2-(3,6-Dihydro-2H-pyran-4-yl)ethyl]-6-(1H-indol-5-yl)-1,3-dihydro-2H-imidazo[4,5-b]pyridin-2-one], the 50% inhibitory concentration (IC50) at human mTOR is less than 0.05 µM. Also, the GI50 in the test on WM-266-4 cells was less than 3 µM.

In the case of `O=c1[nH]c2ncc(-c3cnc4[nH]cc(C(F)(F)F)c4c3)cc2n1CC1CCOCC1` [Example 84, 1-(Tetrahydro-2H-pyran-4-ylmethyl)-6-[3-(trifluoromethyl)-1H-pyrrolo[2,3-b]pyridin-5-yl]-1,3-dihydro-2H-imidazo[4,5-b]pyridin-2-one], the concentration for half-maximal inhibition (IC50) at human mTOR is less than 0.05 µM. Further, the GI50 with WM-266-4 cells lay in the range of 3 to 25 µM.

Consider `O=c1[nH]c2ncc(-c3cc(F)c4[nH]ccc4c3)cc2n1CC1CCOCC1` [Example 29, 6-(7-Fluoro-1H-indol-5-yl)-1-(tetrahydro-2H-pyran-4-ylmethyl)-1,3-dihydro-2H-imidazo[4,5-b]pyridin-2-one], for which the IC50 at human mTOR was less than 0.05 µM. In addition, the GI50 in the test on WM-266-4 cells is less than 3 µM.

As to `O=c1[nH]c2ncc(-c3cnc4[nH]cc(Cl)c4c3)cc2n1C[C@H]1CC[C@@H](O)CC1` [Example 116, 6-(3-Chloro-1H-pyrrolo[2,3-b]pyridin-5-yl)-1-[(cis-4-hydroxycyclohexyl)methyl]-1,3-dihydro-2H-imidazo[4,5-b]pyridin-2-one], at human mTOR, the half-maximal inhibitory concentration (IC50) was less than 0.05 µM. The GI50 with WM-266-4 cells was less than 3 µM.

With `O=c1[nH]c2ncc(-c3cnc4[nH]ccc4c3)cc2n1C[C@H]1CC[C@H](O)CC1` [Example 101, 1-[(trans-4-Hydroxycyclohexyl)methyl]-6-(1H-pyrrolo[2,3-b]pyridin-5-yl)-1,3-dihydro-2H-imidazo[4,5-b]pyridin-2-one], the IC50 on human mTOR was less than 0.05 µM. The GI50 in the test on WM-266-4 cells was less than 3 µM.

`O=c1[nH]c2ncc(-c3cnc4[nH]ccc4c3)cc2n1CCC1=CCOCC1` [Example 48, 1-[2-(3,6-Dihydro-2H-pyran-4-yl)ethyl]-6-(1H-pyrrolo[2,3-b]pyridin-5-yl)-1,3-dihydro-2H-imidazo[4,5-b]pyridin-2-one]: the half-maximal inhibitory concentration (IC50) on human mTOR was less than 0.05 µM. For the same compound, in the test on WM-266-4 cells, the GI50 is less than 3 µM.

With `O=c1[nH]c2ncc(-c3cnc4[nH]ccc4c3)cc2n1C[C@H]1COC[C@@H](O)C1` (racemic) [Example 65, 1-{[cis-5-Hydroxytetrahydro-2H-pyran-3-yl]methyl}-6-(1H-pyrrolo[2,3-b]pyridin-5-yl)-1,3-dihydro-2H-imidazo[4,5-b]pyridin-2-one], the half-maximal inhibitory concentration (IC50) on human mTOR is less than 0.05 µM. Besides, the GI50 in the test on WM-266-4 cells is less than 3 µM.

In the case of `COc1c[nH]c2ncc(-c3cnc4[nH]c(=O)n(C[C@H]5COCCO5)c4c3)cc12` [Example 134, 1-[(2S)-1,4-Dioxan-2-ylmethyl]-6-(3-methoxy-1H-pyrrolo[2,3-b]pyridin-5-yl)-1,3-dihydro-2H-imidazo[4,5-b]pyridin-2-one], the IC50 on human mTOR is less than 0.05 µM. Besides, the GI50 in the test on WM-266-4 cells is less than 3 µM.

On to `CO[C@@H]1CC[C@H](Cn2c(=O)[nH]c3ncc(-c4cnc5[nH]ccc5c4)cc32)OC1` (racemic) [Example 113, 2,6-Anhydro-1,3,4-trideoxy-5-O-methyl-1-[2-oxo-6-(1H-pyrrolo[2,3-b]pyridin-5-yl)-2,3-dihydro-1H-imidazo[4,5-b]pyridin-1-yl]-DL-threo-hexitol], for which the IC50 on human mTOR was less than 0.05 µM. The GI50 in the test with WM-266-4 cells is less than 3 µM.

As to `C[C@@H]1CN(CCn2c(=O)[nH]c3ncc(-c4cnc5[nH]ccc5c4)cc32)C[C@H](C)O1` [Example 53, 1-{2-[cis-2,6-Dimethylmorpholin-4-yl]ethyl}-6-(1H-pyrrolo[2,3-b]pyridin-5-yl)-1,3-dihydro-2H-imidazo[4,5-b]pyridin-2-one], the half-inhibitory concentration (IC50) at human mTOR is less than 0.05 µM. Moreover, in the test with WM-266-4 cells, the GI50 is less than 3 µM.
